As a reminder, the pKd is the negative decadic logarithm of the Kd, by convention in mol/L.

Molecules are shown by their SMILES. pKd: −log10 of the molar value.

Sequence of CRBN truncate (318-426) (Q96SW2 318-426): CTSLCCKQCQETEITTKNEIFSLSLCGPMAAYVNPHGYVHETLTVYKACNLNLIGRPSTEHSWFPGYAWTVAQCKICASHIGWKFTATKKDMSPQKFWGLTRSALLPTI

The experiment addresses CRBN truncate (318-426) (Homo sapiens (Human), UniProt Q96SW2). Kind of experiment: Measurement of molecular interactions using surface plasmon resonance (SPR), Biacore T200. Particulars: 25° C., immobilized CRBN truncate, upper limit of measurement 200 μM. Type of experiment: binding. The procedure, abridged: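 C-terminally Avi-tagged CRBN (318-426) captured on a streptavidin SA chip on a Biacore T200. Running buffer 10 mM HEPES pH 7.5, 150 mM NaCl, 1 mM TCEP, 0.005% Tween 20, 2% DMSO; 60 s contact, 120 s dissociation.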
On the technique in general: Surface plasmon resonance follows binding to a sensor surface in real time, without labels.
On to `CC(C)(C)OC(=O)c1ccc(N2CCC3(CCCC(=O)NC3=O)C2)nn1` (centres unmarked) [Example 184, tert-Butyl 6-(6,8-dioxo-2,7-diazaspiro[4.6]undecan-2-yl)pyridazine-3-carboxylate], for which the pKd is not above 4.00.

Regarding `CC(C)(C)OC(=O)NCCCNc1nccc(N2CCC3(CCCC(=O)NC3=O)C2)n1` (centres unmarked) [Example 185], the pKd was not above 4.00.

With `CC(C)(C)OC(=O)NCCCCCCCCn1ccc2c(N3CCC4(CCCC(=O)NC4=O)C3)ncnc21` (centres unmarked) [Example 186, tert-Butyl N-[8-[4-(6,8-dioxo-2,7-diazaspiro[4.6]undecan-2-yl)pyrrolo[2,3-d]pyrimidin-7-yl]octyl]carbamate], the pKd is 4.00 to 4.30.

`COc1ccc2nc(N3CCC4(CCCC(=O)NC4=O)C3)sc2c1` (centres unmarked) [Example 187, 2-(6-Methoxy-1,3-benzothiazol-2-yl)-2,7-diazaspiro[4.6]undecane-6,8-dione]: the pKd was 4.00 to 4.30.

`COc1ccc2sc(N3CCC4(CCCC(=O)NC4=O)C3)nc2c1` (centres unmarked) [Example 188, 2-(5-Methoxy-1,3-benzothiazol-2-yl)-2,7-diazaspiro[4.6]undecane-6,8-dione]: the pKd was not above 4.00.

Turning to `COc1cccc2sc(N3CCC4(CCCC(=O)NC4=O)C3)nc12` (centres unmarked) [Example 189, 2-(4-Methoxy-1,3-benzothiazol-2-yl)-2,7-diazaspiro[4.6]undecane-6,8-dione], the negative logarithm of the Kd (pKd) is not above 4.00.

`CC(C)(C)OC(=O)N1CCc2c(ncnc2N2CCC3(CCCC(=O)NC3=O)C2)C1` (centres unmarked) [Example 190, tert-Butyl 4-(6,8-dioxo-2,7-diazaspiro[4.6]undecan-2-yl)-6,8-dihydro-5H-pyrido[3,4-d]pyrimidine-7-carboxylate] had a pKd not above 4.00.

As to `N#Cc1ccccc1N1CCC2(CCCC(=O)NC2=O)C1` (centres unmarked) [Example 191], the pKd was not above 4.00.

With `CC(C)(C)OC(=O)CCCCCCCn1c(=O)n(C2CCCC(=O)NC2=O)c2ccccc21` (centres unmarked) [Example 195, tert-Butyl 8-[3-(2,7-dioxoazepan-3-yl)-2-oxobenzimidazol-1-yl]octanoate], the negative logarithm of the Kd (pKd) is more than 4.30.

In turn, `CC(C)(C)OC(=O)NCCCn1c(=O)n(C2CCCC(=O)NC2=O)c2ccccc21` (centres unmarked) [Example 196, tert-Butyl N-[3-[3-(2,7-dioxoazepan-3-yl)-2-oxobenzimidazol-1-yl]propyl]carbamate] gave a pKd of more than 4.30.

As to `CC(C)(C)OC(=O)NCCn1c(=O)n(C2CCCC(=O)NC2=O)c2ccccc21` (centres unmarked) [Example 197, tert-Butyl N-[2-[3-(2,7-dioxoazepan-3-yl)-2-oxobenzimidazol-1-yl]ethyl]carbamate], the pKd is not above 4.00.

`CC(C)(C)OC(=O)NCCCCCCCn1c(=O)n(C2CCCC(=O)NC2=O)c2ccccc21` (centres unmarked) [Example 198, tert-Butyl N-[7-[3-(2,7-dioxoazepan-3-yl)-2-oxobenzimidazol-1-yl]heptyl] carbamate] showed a pKd of more than 4.30.

Compound `CC(C)(C)OC(=O)NCCOCCOCCn1c(=O)n(C2CCCC(=O)NC2=O)c2ccccc21` (centres unmarked) [Example 199, tert-Butyl N-[2-[2-[2-[3-(2,7-dioxoazepan-3-yl)-2-oxobenzimidazol-1-yl]ethoxy]ethoxy]ethyl]carbamate] gave a pKd not above 4.00.

Compound `CC(C)(C)OC(=O)NCCCCCCCn1c(=O)n(C2CCCC(=O)NC2=O)c2ncccc21` (centres unmarked) [Example 201-2] gave a pKd not above 4.00.

`Cc1ccc(NC(=O)NCCCn2c(=O)n(C3CCCC(=O)NC3=O)c3ccccc32)cc1Cl` (centres unmarked) [Example 202, 1-(3-Chloro-4-methylphenyl)-3-[3-[3-(2,7-dioxoazepan-3-yl)-2-oxobenzimidazol-1-yl]propyl]urea] had a negative logarithm of the Kd (pKd) not above 4.00.

Consider `Cn1c(=O)n(C2CCCC(=O)NC2=O)c2cccc(C#CCCCCCC(=O)OC(C)(C)C)c21` (centres unmarked) [Example 206, tert-Butyl 8-[1-(2,7-dioxoazepan-3-yl)-3-methyl-2-oxobenzimidazol-4-yl]oct-7-ynoate], for which the pKd was more than 4.30.

`O=C(O)CCCCCCCc1nn(C2CCCC(=O)NC2=O)c2ccccc12` (centres unmarked) [Example 209, 8-[1-(2,7-Dioxoazepan-3-yl)indazol-3-yl]octanoic acid] gave a pKd not above 4.00.

The compound `Cn1c(=O)n(C2CCCC(=O)NC2=O)c2cccc(I)c21` (centres unmarked) [Example 210, 3-(4-Iodo-3-methyl-2-oxobenzimidazol-1-yl) azepane-2,7-dione] showed a pKd of 4.00 to 4.30.

`Cn1c(=O)n(C2CCCC(=O)NC2=O)c2cccc(CCCCC(=O)OC(C)(C)C)c21` (centres unmarked) [Example 214, tert-Butyl 5-[1-(2,7-dioxoazepan-3-yl)-3-methyl-2-oxobenzimidazol-4-yl]pentanoate] gave a negative logarithm of the Kd (pKd) of 4.00 to 4.30.

As to `Cn1c(=O)n(C2CCCC(=O)NC2=O)c2ccc(C3CCN(C(=O)OC(C)(C)C)CC3)cc21` (centres unmarked) [Example 218, tert-Butyl 4-[1-(2,7-dioxoazepan-3-yl)-3-methyl-2-oxobenzimidazol-5-yl]piperidine-1-carboxylate], the pKd was 4.00 to 4.30.

Compound `Cn1c(=O)n(C2CCCC(=O)NC2=O)c2ccc(C3CCN(CC(=O)OC(C)(C)C)CC3)cc21` (centres unmarked) [Example 219, tert-Butyl 2-[4-[1-(2,7-dioxoazepan-3-yl)-3-methyl-2-oxobenzimidazol-5-yl]piperidin-1-yl]acetate] showed a pKd of more than 4.30.

Consider `Cn1c(=O)n(C2CCCC(=O)NC2=O)c2cccc(C3=CCN(C(=O)OC(C)(C)C)CC3)c21` (centres unmarked) [Example 220, tert-Butyl 4-[1-(2,7-dioxoazepan-3-yl)-3-methyl-2-oxobenzimidazol-4-yl]-3,6-dihydro-2H-pyridine-1-carboxylate], for which the pKd is 4.00 to 4.30.

`Cn1c(=O)n(C2CCCC(=O)NC2=O)c2cccc(-c3ccncc3)c21` (centres unmarked) [Example 221, 3-[3-Methyl-2-oxo-4-(4-pyridyl)benzimidazol-1-yl]azepane-2,7-dione]: the pKd is 4.00 to 4.30.

As for `Cn1c(=O)n(C2CCCC(=O)NC2=O)c2cccc(C3=CCN(CC(=O)OC(C)(C)C)CC3)c21` (centres unmarked) [Example 222, tert-Butyl 2-[4-[1-(2,7-dioxoazepan-3-yl)-3-methyl-2-oxobenzimidazol-4-yl]-3,6-dihydro-2H-pyridin-1-yl]acetate], the pKd was 4.00 to 4.30.

`CC(C)(C)OC(=O)c1ccc(N2CC[C@]3(CCCC(=O)NC3=O)CC2=O)cc1` [Example 223, tert-Butyl 4-(4,7,9-trioxo-3,8-diazaspiro [5.6]dodecan-3-yl) benzoate] gave a pKd of more than 4.30.

The compound `CC(C)(C)OC(=O)c1ccc(N2CC[C@@]3(CCCC(=O)NC3=O)CC2=O)cc1` [Example 224, tert-Butyl 4-(4,7,9-trioxo-3,8-diazaspiro [5.6]dodecan-3-yl) benzoate] showed a pKd not above 4.00.

Compound `O=C1CCCC2(CCN(c3ccc([N+](=O)[O-])cc3)C(=O)C2)C(=O)N1` (centres unmarked) [Example 225, 3-(4-Nitrophenyl)-3,8-diazaspiro [5.6]dodecane-4,7,9-trione] gave a pKd not above 4.00.

As for `CC(C)(C)OC(=O)CCCCCN1CC2(CC(=O)N(C3CCC(=O)NC3=O)C2=O)C1` (centres unmarked) [Example 229, tert-Butyl 6-[6-(2,6-dioxopiperidin-3-yl)-5,7-dioxo-2,6-diazaspiro[3.4]octan-2-yl]hexanoate], the pKd is not above 4.00.

As to `Nc1nccc(N2CC3(CC(=O)N(C4CCC(=O)NC4=O)C3=O)C2)n1` (centres unmarked) [Example 230, 2-(2-Aminopyrimidin-4-yl)-6-(2,6-dioxopiperidin-3-yl)-2,6-diazaspiro[3.4]octane-5,7-dione], the pKd was not above 4.00.

In the case of `CC(C)(C)OC(=O)c1ccc2nc(N3CC4(CC(=O)N(C5CCC(=O)NC5=O)C4=O)C3)sc2c1` (centres unmarked) [Example 231, tert-Butyl 2-[6-(2,6-dioxopiperidin-3-yl)-5,7-dioxo-2,6-diazaspiro[3.4]octan-2-yl]-1,3-benzothiazole-6-carboxylate], the pKd is more than 4.30.

`O=C1CCC(N2C(=O)CC3(CN(c4ccc([N+](=O)[O-])cc4)C3)C2=O)C(=O)N1` (centres unmarked) [Example 232, 6-(2,6-Dioxopiperidin-3-yl)-2-(4-nitrophenyl)-2,6-diazaspiro[3.4]octane-5,7-dione] had a pKd of 4.00 to 4.30.

`CC(C)(C)OC(=O)NCCCNc1nccc(N2CC3(CC(=O)N(C4CCC(=O)NC4=O)C3=O)C2)n1` (centres unmarked) [Example 233]: the pKd was not above 4.00.

The compound `CC(C)(C)OC(=O)COc1cnc(N2CC3(CC(=O)N(C4CCC(=O)NC4=O)C3=O)C2)nc1` (centres unmarked) [Example 234] showed a pKd not above 4.00.

For the compound `Cn1ccc2c(N3CC4(CC(=O)N(C5CCC(=O)NC5=O)C4=O)C3)ncnc21` (centres unmarked) [Example 235, 6-(2,6-Dioxopiperidin-3-yl)-2-(7-methylpyrrolo[2,3-d]pyrimidin-4-yl)-2,6-diazaspiro[3.4]octane-5,7-dione], the pKd is not above 4.00.

`CC(C)(C)OC(=O)NCCCCCCCCn1ccc2c(N3CC4(CC(=O)N(C5CCC(=O)NC5=O)C4=O)C3)ncnc21` (centres unmarked) [Example 236, tert-Butyl N-[8-[4-[6-(2,6-dioxopiperidin-3-yl)-5,7-dioxo-2,6-diazaspiro[3.4]octan-2-yl]pyrrolo[2,3-d]pyrimidin-7-yl]octyl]carbamate] showed a pKd of more than 4.30.

Compound `CC(C)(C)OC(=O)N1CCC(Oc2ccc(CN3CC4(CC(=O)N(C5CCC(=O)NC5=O)C4=O)C3)cc2)CC1` (centres unmarked) [Example 237, tert-Butyl 4-[4-[[6-(2,6-dioxopiperidin-3-yl)-5,7-dioxo-2,6-diazaspiro[3.4]octan-2-yl]methyl]phenoxy]piperidine-1-carboxylate] gave a pKd not above 4.00.

With `COc1ccc2nc(N3CC4(CC(=O)N(C5CCC(=O)NC5=O)C4=O)C3)sc2c1` (centres unmarked) [Example 238, 6-(2,6-Dioxopiperidin-3-yl)-2-(6-methoxy-1,3-benzothiazol-2-yl)-2,6-diazaspiro[3.4]octane-5,7-dione], the pKd is more than 4.30.

`COc1ccc2sc(N3CC4(CC(=O)N(C5CCC(=O)NC5=O)C4=O)C3)nc2c1` (centres unmarked) [Example 239, 6-(2,6-Dioxopiperidin-3-yl)-2-(5-methoxy-1,3-benzothiazol-2-yl)-2,6-diazaspiro[3.4]octane-5,7-dione] showed a pKd of more than 4.30.

The values above are taken from patent publication US20250388593A1 (MITSUBISHI TANABE PHARMA CORPORATION, priority 2023, published 2025).
